Tested on: M. tuberculosis NTB1
Type: cell-based

Compound | NTB1 MIC99 [mg/L]
CCCCCN1CCCN(c2nc(=O)c3cc(C(F)(F)F)cc([N+](=O)[O-])c3s2)CC1.Cl [Compound 2, 8-Nitro-2-(4-pentyl-1,4-diazepan-1-yl)-6-(trifluoromethyl)-4H-1,3-benzothiazin-4-one Hydrochloride] | >10
CCCCCCN1CCCN(c2nc(=O)c3cc(C(F)(F)F)cc([N+](=O)[O-])c3s2)CC1.Cl [Compound 3, 2-(4-Hexyl-1,4-diazepan-1-yl)-8-nitro-6-(trifluoromethyl)-4H-1,3-benzothiazin-4-one Hydrochloride] | >10
Cl.O=c1nc(N2CCCN(CCC3CCCCC3)CC2)sc2c([N+](=O)[O-])cc(C(F)(F)F)cc12 [Compound 4, 2-[4-(2-Cyclohexylethyl)-1,4-diazepan-1-yl]-8-nitro-6-(trifluoromethyl)-4H-1,3-benzothiazin-4-one Hydrochloride] | >10
CCCCCCCN1CCCN(c2nc(=O)c3cc(C(F)(F)F)cc([N+](=O)[O-])c3s2)CC1.Cl [Compound 5, 2-(4-Heptyl-1,4-diazepan-1-yl)-8-nitro-6-(trifluoromethyl)-4H-1,3-benzothiazin-4-one Hydrochloride] | 13.8
Cl.O=c1nc(N2CCCN(C3CCCCC3)CC2)sc2c([N+](=O)[O-])cc(C(F)(F)F)cc12 [Compound 6, 2-(4-Cyclohexyl-1,4-diazepan-1-yl)-8-nitro-6-(trifluoromethyl)-4H-1,3-benzothiazin-4-one Hydrochloride] | 50.5
Cl.O=c1nc(N2CCCN(CCc3ccccc3)CC2)sc2c([N+](=O)[O-])cc(C(F)(F)F)cc12 [Compound 7, 8-Nitro-2-[4-(2-phenylethyl)-1,4-diazepan-1-yl]-6-(trifluoromethyl)-4H-1,3-benzothiazin-4-one Hydrochloride] | 27.1
O=c1nc(N2CCN(CC3CCCCC3)CC2)sc2c([N+](=O)[O-])cc(C(F)(F)F)cc12 [PBTZ169, 2-[4-(cyclohexylmethyl)piperazin-1-yl]-8-nitro-6-(trifluoromethyl)-4H-1,3-benzothiazin-4-one, reference compound] | >100

From US10358442B2, “2-homopiperazine-1-yl-4H-1,3-benzothiazine-4-one derivatives and process for the preparation of 2-(homo)piperazine 1,3-benzothiazine-4-one hydrochlorides” (Ecole Polytechnique Federale De Lausanne (EPFL), priority 2015, dated 2019)
